Measurements taken from patent publication US20090281054A1, “COMPOSITIONS AND METHODS COMPRISING CAPURAMYCIN ANALOGUES” (priority 2008, published 2009).
In brackets after ≈: the same amount, converted by molar mass. Several values for one entry are separate records, joined by “and”; a condition that tells them apart may be missing. Equal entries are not always repeated. Where two headings read alike, the source gives them in different places.

Key:
in vitro = assay type: cell-based; settings: mouse
Experimental: (§1) The SQ997 amino acid derivatives shown in Table 2 were tested for in vitro activity against MTB, cytotoxicity for uninfected J774 cells to determine IC50, and for intracellular activity in the macrophage assay (Table 15). […] Cell viability remained similar to SQ997, or slightly better as cell morphologic changes were reduced.

MTB H37Rv = assay: MIC by broth microdilution; assay type: cell-based; settings: Mycobacterium tuberculosis
Experimental: as §1

[1] = test system: M. smegmatis (MSMG; MC2155); assay: MIC by microdilution method in 7H9 broth; assay type: cell-based; settings: MSMG MC^2155, 72 hr
[2] = test system: M. abscessus (MAB; ATCC 700869); assay: MIC by microdilution method in 7H9 broth; assay type: cell-based; settings: MAB 700869
[3] = test system: M. kansaii (MKN; ATCC12478 & 35775); assay: MIC by microdilution method in 7H9 broth; assay type: cell-based, M. kansasii
M. avium complex (MAC) = assay: MIC by microdilution method in 7H9 broth; assay type: cell-based; settings: for MIC90: value in square brackets
MAC = assay: Synergy by checkerboard titration (microdilution); assay type: cell-based, M. avium complex; settings: for MIC Combination: combination SQ641 + EMB; for MIC: Mycobacterium avium, drug alone
M. smegmatis = assay: Synergy by checkerboard titration (microdilution); assay type: cell-based; settings: M. smegmatis; for MIC: Mycolicibacterium smegmatis, drug alone
[4] = test system: MTB-pSMT1 luciferase reporter strain; assay: Activity against slowly replicating (hypoxic) MTB; assay type: cell-based; settings: Mycobacterium tuberculosis
M. abscessus = assay: Synergy by checkerboard titration (microdilution); assay type: cell-based
MTB in J774 cells = assay: Intracellular activity of amino acid conjugates; assay type: cell-based, Mycobacterium tuberculosis; settings: day 0 RLU 775, Control day 7 31700
Experimental: The amino acid conjugates were tested at concentrations of 4 mg/mL and 8 mg/mL compared with a control and isoniazid (INH).
The intracellular activity against MTB by capuramycin amino acid derivatives was tested. Cells J774 were infected with MTB and treated for 7 days with the amino acid derivative. The mean Relative Light Unites (RLU), an estimation of bacterial viability, was measured as described in Snewin et al., Infect. Immun., 1999, 67(9), 4586-4593).

MTB in macrophages = assay type: cell-based, Mycobacterium tuberculosis
MTB = assay type: in vivo, mouse; settings: IP, 250 mg/kg, 2 weeks treatment
[5] = Mycolicibacterium smegmatis, MC2155|MC^2155, read-out: MIC
[6] = Mycobacteroides abscessus, ATCC700869, read-out: MIC
[7] = Mycobacterium kansasii, ATCC 12478 / ATCC 35775, MKN ATCC35775, read-out: MIC
[8] = Mycobacterium kansasii, MKN ATCC12478, read-out: MIC

In the case of `CO[C@H]1[C@@H](OC(=O)CCCCCCCN)[C@H](N2C=CC(=O)NC2)O[C@@H]1[C@@H](OC1OC(C(=O)N[C@H]2CCC[C@@H](C)NC2=O)=C[C@H](O)[C@@H]1O)C(N)=O` (stereo partly drawn) [997-aminooctanoic acid], the IC50 (in vitro) is reported as over 32 mg/L and the MIC (MTB H37Rv) is reported as 8 mg/L (≈ 11.3 µM).
Work on `CO[C@H]1[C@@H](OC(=O)CCCCCCCCCCN)[C@H](N2C=CC(=O)NC2)O[C@@H]1[C@@H](OC1OC(C(=O)N[C@H]2CCC[C@@H](C)NC2=O)=C[C@H](O)[C@@H]1O)C(N)=O` (stereo partly drawn) [997-aminoundecanoic acid] yielded an IC50 (in vitro) of 32 mg/L (≈ 42.5 µM) and an MIC (MTB H37Rv) of 2 mg/L (≈ 2.66 µM).
`CO[C@H]1[C@@H](OC(=O)c2ccncc2)[C@H](N2C=CC(=O)NC2)O[C@@H]1[C@@H](OC1OC(C(=O)N[C@H]2CCC[C@@H](C)NC2=O)=C[C@H](O)[C@@H]1O)C(N)=O` (stereo partly drawn) [997-isonicotinic acid] showed an IC50 (in vitro) of over 32 mg/L and an MIC (MTB H37Rv) of 4 mg/L (≈ 5.93 µM).
`CO[C@H]1[C@@H](OC(=O)C2CCNCC2)[C@H](N2C=CC(=O)NC2)O[C@@H]1[C@@H](OC1OC(C(=O)N[C@H]2CCC[C@@H](C)NC2=O)=C[C@H](O)[C@@H]1O)C(N)=O` (stereo partly drawn) [997-isonipecotic acid] gave an IC50 (in vitro) of over 32 mg/L and an MIC (MTB H37Rv) of 8 mg/L (≈ 11.8 µM).
`CO[C@H]1[C@@H](OC(=O)[C@H](N)C(C)C)[C@H](N2C=CC(=O)NC2)O[C@@H]1[C@@H](OC1OC(C(=O)N[C@H]2CCC[C@@H](C)NC2=O)=C[C@H](O)[C@@H]1O)C(N)=O` (stereo partly drawn) [Compound 997-D-Val] gave an IC50 (in vitro) of over 32 mg/L and an MIC (MTB H37Rv) of 12.5 mg/L (≈ 18.7 µM).
With `CO[C@H]1[C@@H](OC(=O)[C@@H](N)C(C)C)[C@H](N2C=CC(=O)NC2)O[C@@H]1[C@@H](OC1OC(C(=O)N[C@H]2CCC[C@@H](C)NC2=O)=C[C@H](O)[C@@H]1O)C(N)=O` (stereo partly drawn) [Compound 997-L-Val] the IC50 (in vitro) was over 32 mg/L and the MIC (MTB H37Rv) was 12.5 mg/L (≈ 18.7 µM).
With `CC[C@@H](CO)NCCN[C@@H](CC)CO` [EMB, ethambutol, reference compound] the MIC [1, 5] was 0.5 mg/L (≈ 2.45 µM), the MIC [2, 6] was over 32 mg/L and the MIC [3, 7] was 1 mg/L (≈ 4.89 µM). For the same molecule, the MIC [3, 8] was 2 mg/L (≈ 9.79 µM), the MIC (M. avium complex (MAC); Mycobacterium avium, 336 h, MAC isolates, 2 wk, read-out: MIC (range)) was 0.5 to 32 mg/L (≈ 2.45 to 157 µM) and the MIC (M. avium complex (MAC); Mycobacterium avium, MAC strain 100, read-out: MIC) was 4 mg/L (≈ 19.6 µM). The MIC (M. avium complex (MAC); Mycobacterium avium, MAC strain 101, read-out: MIC) was 1 mg/L (≈ 4.89 µM), the MIC (M. avium complex (MAC); Mycobacterium avium, MAC strain 104, read-out: MIC) was 2 mg/L (≈ 9.79 µM) and the MIC (M. avium complex (MAC); Mycobacterium avium, MAC strain 109, read-out: MIC) was 0.5 mg/L (≈ 2.45 µM). The MIC (M. avium complex (MAC); Mycobacterium avium, MAC strain A5, read-out: MIC) was 1 mg/L (≈ 4.89 µM), the MIC (M. avium complex (MAC); Mycobacterium avium, MAC strain JSH1, read-out: MIC) was 16 mg/L (≈ 78.3 µM) and the MIC (M. avium complex (MAC); Mycobacterium avium, MAC strain NIH C1-1, read-out: MIC) was 4 mg/L (≈ 19.6 µM). It also gave an MIC (M. avium complex (MAC); Mycobacterium avium, MAC strain NIH C1-2, read-out: MIC) of 2 mg/L (≈ 9.79 µM), an MIC (M. avium complex (MAC); Mycobacterium avium, MAC strain NIH C1-3, read-out: MIC) of 32 mg/L (≈ 157 µM) and an MIC (M. avium complex (MAC); Mycobacterium avium, MAC strain NIH C1-4, read-out: MIC) of 2 mg/L (≈ 9.79 µM). For the same molecule, the MIC90 (M. avium complex (MAC); Mycobacterium avium, MAC isolates, read-out: MIC90) was 16 mg/L (≈ 78.3 µM), the “MIC Combination” value (MAC; MAC A5) was 0.062 mg/L and the “MIC Combination” value (MAC; MAC JSH1) was 8.0 mg/L. For the same molecule, the “MIC Combination” value (MAC; MAC NIH C1-1) was 2.0 mg/L, the MIC (MAC; MAC A5) was 1 mg/L and the MIC (MAC; MAC JSH1) was 32 mg/L. For the same molecule, the MIC (MAC; MAC NIH C1-1) was 8 mg/L, the “MIC Combination” value (M. smegmatis; combination SQ641 + EMB) was 0.12 mg/L and the MIC (M. smegmatis) was 0.5 mg/L. For the same molecule, the MIC [4] was 2 mg/L (≈ 9.79 µM) and the MIC ([4]; Hypoxic, […]) was 32 mg/L (≈ 157 µM).
With `CO[C@H]1/C=C/O[C@@]2(C)Oc3c(C)c(O)c4c(c3C2=O)C2=NC3(CCN(CC(C)C)CC3)NC2=C(NC(=O)/C(C)=C\C=C\[C@H](C)[C@H](O)[C@@H](C)[C@@H](O)[C@@H](C)[C@H](OC(C)=O)[C@@H]1C)C4=O` [RFB, reference compound] the MIC [1] was 0.25 mg/L (≈ 0.295 µM), the MIC [2] was 2 mg/L (≈ 2.36 µM) and the MIC ([3]; MKN ATCC12478) was “≦0.0039 μg/ml”. The MIC ([3]; MKN ATCC35775) was “≦0.031 μg/ml”, the “MIC range” value (M. avium complex (MAC); MAC isolates, 2 wk) was 0.0078 to 0.125 mg/L and the MIC90 (M. avium complex (MAC); MAC isolates) was 0.062 mg/L (≈ 0.0732 µM). For the same molecule, the “MIC Combination” value (M. abscessus; combination SQ641 + RFB) was 0.25 mg/L and the “MIC Alone” value (M. abscessus; drug alone) was 2.0 mg/L.
`[H]/N=C(/N)N[C@H]1[C@H](O)[C@@H](O)[C@H](O[C@@H]2O[C@@H](C)[C@](O)(C=O)[C@H]2O[C@@H]2O[C@@H](CO)[C@H](O)[C@@H](O)[C@@H]2NC)[C@@H](N/C(N)=N\[H])[C@@H]1O` [SM, streptomycin, reference compound] gave an MIC [1, 5] of 0.5 mg/L (≈ 0.86 µM), an MIC [2, 6] of 8 mg/L (≈ 13.8 µM) and an MIC [3, 7] of 2 mg/L (≈ 3.44 µM). The MIC [3, 8] was over 32 mg/L, the MIC (M. abscessus; Mycobacteroides abscessus, drug alone) was 8 mg/L and the “MIC Combination” value (M. abscessus; combination SQ641 + SM) was 2.0 mg/L. For the same molecule, the “MIC Combination” value (M. smegmatis; combination SQ641 + SM) was 0.25 mg/L, the MIC (M. smegmatis) was 0.5 mg/L and the MIC [4] was 0.25 mg/L (≈ 0.43 µM). It also gave an MIC ([4]; Hypoxic, […]) of 1 mg/L (≈ 1.72 µM).
For `CCCCCCCCCC(=O)O[C@@H]1[C@H](OC)[C@@H]([C@@H](OC2OC(C(=O)N[C@H]3CCC[C@@H](C)NC3=O)=C[C@H](OC(=O)CCOCCOCCOCCOCCN)[C@@H]2OC(=O)CCOCCOCCOCCOCCN)C(N)=O)O[C@H]1n1ccc(=O)[nH]c1=O` (stereo partly drawn) [SQ641-2topdec], the “Mean RLU on day 7” value (MTB in J774 cells; 4 μg/ml) was 4354 RLU and the “Mean RLU on day 7” value (MTB in J774 cells; 8 μg/ml) was 2903 RLU.
With `CCCCCCCCCC(=O)O[C@@H]1[C@H](OC)[C@@H]([C@@H](OC2OC(C(=O)N[C@H]3CCC[C@@H](C)NC3=O)=C[C@H](OC(=O)CCCCCCCCCCN)[C@@H]2O)C(N)=O)O[C@H]1n1ccc(=O)[nH]c1=O` (stereo partly drawn) [SQ641-aua] the “Mean RLU on day 7” value (MTB in J774 cells; 4 μg/ml) was 3163 RLU and the “Mean RLU on day 7” value (MTB in J774 cells; 8 μg/ml) was 372 RLU.
For `CCCCCCCCCC(=O)O[C@@H]1[C@H](OC)[C@@H]([C@@H](OC2OC(C(=O)N[C@H]3CCC[C@@H](C)NC3=O)=C[C@H](OC(=O)CCOCCOCCOCCOCCN)[C@@H]2O)C(N)=O)O[C@H]1n1ccc(=O)[nH]c1=O` (stereo partly drawn) [SQ641-topdec], the “Mean RLU on day 7” value (MTB in J774 cells; 4 μg/ml) was 3368 RLU and the “Mean RLU on day 7” value (MTB in J774 cells; 8 μg/ml) was 2143 RLU.
In the case of “D-alpha-tocopheryl poly(ethylene glycol) 1000 succinate [TPGS]”, the “Effect of TPGS alone on MTB growth in macrophages” value (MTB in macrophages) is reported as “increased MTB growth”, the “Mean RLU on day 7” value (MTB in macrophages) is reported as 13903 RLU and 14595 RLU and 13942 RLU and the “Lung CFU ± SD” value (MTB; Control 3.8 ± 1.9 × 10^8) is reported as 3.0 ± 1.3 × 10^8 CFU. The “Lung Log CFU” value (MTB; Control 8.58) was 8.48 Log CFU.
